Where “and” joins values, the source holds several entries; their conditions need not be identical. Equal values may be shown once.
System: 616215-338-R-J1-PDC spheroids with HUVEC/MSC, viability
Assay: Anticancer human tumor 616215-338-R-J1-PDC patient-derived colon adenocarcinoma cell line growth inhibition [PI3K]
Details: for viability, T/C: stronger effect = lower value
Outline: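 Combination activity was assessed by viability in multicellular tumor spheroids carrying HUVEC and MSC components. Agents were tested with PI3K inhibitors from a Cmax-based top dose (or 10 microM) downward in half-log increments.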

[1] = curve of first compound, second compound 0.0316 µM
[2] = curve of first compound, second compound 0.1 µM
[3] = curve of first compound, second compound 0.316 µM
[4] = curve of first compound, second compound 1 µM
[5] = second compound 0.0316 µM, first compound 0.0316 µM
[6] = second compound 0.0316 µM, first compound 0.1 µM
[7] = second compound 0.0316 µM, first compound 0.316 µM
[8] = second compound 0.0316 µM, first compound 1 µM
[9] = second compound 0.0316 µM, first compound 3.16 µM
[10] = second compound 0.0316 µM, first compound 10 µM
[11] = second compound 0.1 µM, first compound 0.0316 µM
[12] = second compound 0.1 µM, first compound 0.1 µM
[13] = second compound 0.1 µM, first compound 0.316 µM
[14] = second compound 0.1 µM, first compound 1 µM
[15] = second compound 0.1 µM, first compound 3.16 µM
[16] = second compound 0.1 µM, first compound 10 µM
[17] = second compound 0.316 µM, first compound 0.0316 µM
[18] = second compound 0.316 µM, first compound 0.1 µM
[19] = second compound 0.316 µM, first compound 0.316 µM
[20] = second compound 0.316 µM, first compound 1 µM
[21] = second compound 0.316 µM, first compound 3.16 µM
[22] = second compound 0.316 µM, first compound 10 µM
[23] = second compound 1 µM, first compound 0.0316 µM
[24] = second compound 1 µM, first compound 0.1 µM
[25] = second compound 1 µM, first compound 0.316 µM
[26] = second compound 1 µM, first compound 1 µM
[27] = second compound 1 µM, first compound 3.16 µM
[28] = second compound 1 µM, first compound 10 µM
[29] = curve of first compound, second compound 3.16 µM
[30] = curve of first compound, second compound 10 µM
[31] = second compound 3.16 µM, first compound 0.0316 µM
[32] = second compound 3.16 µM, first compound 0.1 µM
[33] = second compound 3.16 µM, first compound 0.316 µM
[34] = second compound 3.16 µM, first compound 1 µM
[35] = second compound 3.16 µM, first compound 3.16 µM
[36] = second compound 3.16 µM, first compound 10 µM
[37] = second compound 10 µM, first compound 0.0316 µM
[38] = second compound 10 µM, first compound 0.1 µM
[39] = second compound 10 µM, first compound 0.316 µM
[40] = second compound 10 µM, first compound 1 µM
[41] = second compound 10 µM, first compound 3.16 µM
[42] = second compound 10 µM, first compound 10 µM
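Further: spheroids exposed to agents for seven days before the viability read.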

Compound: C=CC(=O)N1CCN(c2nc(=O)n(-c3c(C)ccnc3C(C)C)c3nc(-c4c(O)cccc4F)c(F)cc23)C(C)C1 (configuration not stated) + COc1c(OCCCN2CCOCC2)ccc2c3n(c(=NC(=O)c4cnc(N)nc4)nc12)CCN3
- IC50 (curve of first compound, second compound 0.00316 µM): > 10 µM
- IC50 (curve of first compound, second compound 0.01 µM): > 10 µM
- IC50 [1]: > 10 µM
- IC50 [2]: > 10 µM
- IC50 [3]: < 0.0316 µM
- IC50 [4]: < 0.0316 µM
- viability, T/C (second compound 0.00316 µM, first compound 0.0316 µM): 90.8%
- viability, T/C (second compound 0.00316 µM, first compound 0.1 µM): 87.9%
- viability, T/C (second compound 0.00316 µM, first compound 0.316 µM): 92.2%
- viability, T/C (second compound 0.00316 µM, first compound 1 µM): 96.6%
- viability, T/C (second compound 0.00316 µM, first compound 3.16 µM): 95.2%
- viability, T/C (second compound 0.00316 µM, first compound 10 µM): 80.1%
- viability, T/C (second compound 0.01 µM, first compound 0.0316 µM): 110%
- viability, T/C (second compound 0.01 µM, first compound 0.1 µM): 92.2%
- viability, T/C (second compound 0.01 µM, first compound 0.316 µM): 97.8%
- viability, T/C (second compound 0.01 µM, first compound 1 µM): 101%
- viability, T/C (second compound 0.01 µM, first compound 3.16 µM): 111%
- viability, T/C (second compound 0.01 µM, first compound 10 µM): 78%
- viability, T/C [5]: 106%
- viability, T/C [6]: 85.9%
- viability, T/C [7]: 99.5%
- viability, T/C [8]: 110%
- viability, T/C [9]: 87.8%
- viability, T/C [10]: 76.2%
- viability, T/C [11]: 91.7%
- viability, T/C [12]: 96.8%
- viability, T/C [13]: 93.4%
- viability, T/C [14]: 98.9%
- viability, T/C [15]: 90.2%
- viability, T/C [16]: 71.7%
- viability, T/C [17]: 52.7%
- viability, T/C [18]: 36.7%
- viability, T/C [19]: 46.1%
- viability, T/C [20]: 47.1%
- viability, T/C [21]: 47.1%
- viability, T/C [22]: 36.6%
- viability, T/C [23]: 23.4%
- viability, T/C [24]: 23.2%
- viability, T/C [25]: 29.8%
- viability, T/C [26]: 24.4%
- viability, T/C [27]: 25.4%
- viability, T/C [28]: 21%

Compound: Cn1ncc(Cl)c1-c1cc(C(=O)NC(CN)Cc2cccc(F)c2)sc1Cl (configuration not stated) + Cc1nc(NC(=O)N2CCCC2C(N)=O)sc1-c1ccnc(C(C)(C)C(F)(F)F)c1
- IC50 [1]: 6.95 µM
- IC50 [2]: 6.73 µM
- IC50 [3]: 6.48 µM
- IC50 [4]: 9.17 µM
- IC50 [29]: 5.85 µM
- IC50 [30]: 4.01 µM
- viability, T/C [5]: 96%
- viability, T/C [6]: 93.5%
- viability, T/C [7]: 102%
- viability, T/C [8]: 91.5%
- viability, T/C [9]: 82.5%
- viability, T/C [10]: 35.2%
- viability, T/C [11]: 102%
- viability, T/C [12]: 95.8%
- viability, T/C [13]: 92.3%
- viability, T/C [14]: 89%
- viability, T/C [15]: 76.3%
- viability, T/C [16]: 36.4%
- viability, T/C [17]: 99.4%
- viability, T/C [18]: 96%
- viability, T/C [19]: 98.8%
- viability, T/C [20]: 96.8%
- viability, T/C [21]: 67.6%
- viability, T/C [22]: 39.4%
- viability, T/C [23]: 109%
- viability, T/C [24]: 92.9%
- viability, T/C [25]: 106%
- viability, T/C [26]: 98.4%
- viability, T/C [27]: 73.7%
- viability, T/C [28]: 48.1%
- viability, T/C [31]: 91.8%
- viability, T/C [32]: 95%
- viability, T/C [33]: 94.1%
- viability, T/C [34]: 87.7%
- viability, T/C [35]: 70%
- viability, T/C [36]: 32.6%
- viability, T/C [37]: 89.9%
- viability, T/C [38]: 90.9%
- viability, T/C [39]: 86.3%
- viability, T/C [40]: 70.5%
- viability, T/C [41]: 59.6%
- viability, T/C [42]: 22.8%

Compound: Cn1nccc1Nc1nccc(-c2ccn(C(CO)c3ccc(Cl)c(F)c3)c(=O)c2)n1 (configuration not stated) + Cc1nc(NC(=O)N2CCCC2C(N)=O)sc1-c1ccnc(C(C)(C)C(F)(F)F)c1
- IC50 [1]: 3.46 µM
- IC50 [2]: 2.98 µM
- IC50 [3]: 2.27 µM
- IC50 [4]: 1.58 µM
- IC50 [29]: 0.739 µM
- IC50 [30]: 0.552 µM
- viability, T/C [5]: 106%
- viability, T/C [6]: 81.5%
- viability, T/C [7]: 83.8%
- viability, T/C [8]: 68.9%
- viability, T/C [9]: 47.8%
- viability, T/C [10]: 37.1%
- viability, T/C [11]: 97.2%
- viability, T/C [12]: 97.9%
- viability, T/C [13]: 86.2%
- viability, T/C [14]: 58.3%
- viability, T/C [15]: 56.6%
- viability, T/C [16]: 33.1%
- viability, T/C [17]: 96.7%
- viability, T/C [18]: 86%
- viability, T/C [19]: 87.6%
- viability, T/C [20]: 72.1%
- viability, T/C [21]: 40.7%
- viability, T/C [22]: 29.1%
- viability, T/C [23]: 92.4%
- viability, T/C [24]: 97.8%
- viability, T/C [25]: 67.8%
- viability, T/C [26]: 57.7%
- viability, T/C [27]: 42.1%
- viability, T/C [28]: 26.8%
- viability, T/C [31]: 96%
- viability, T/C [32]: 89.3%
- viability, T/C [33]: 68%
- viability, T/C [34]: 39.3%
- viability, T/C [35]: 32.4%
- viability, T/C [36]: 13.9%
- viability, T/C [37]: 94.2%
- viability, T/C [38]: 83.9%
- viability, T/C [39]: 70.2%
- viability, T/C [40]: 29.7%
- viability, T/C [41]: 5.53%
- viability, T/C [42]: 1.47%

Compound: CCCS(=O)(=O)Nc1ccc(F)c(C(=O)c2c[nH]c3ncc(-c4ccc(Cl)cc4)cc23)c1F
- viability, T/C (compound 0.0316 µM): 95.5% [middle of 4 runs]
- viability, T/C (compound 0.1 µM): 93.5% [middle of 4 runs]
- viability, T/C (compound 0.316 µM): 97.2% [middle of 4 runs]
- viability, T/C (compound 1 µM): 92.5% [middle of 4 runs]
- viability, T/C (compound 10 µM): 2.66% [middle of 4 runs]
- IC50 (curve of compound): 4.34 µM and 3.87 µM and 5.17 µM

From PubChem BioAssay AID1963978 (Molecular Pharmacology Branch, DTP, NCI, 2024)
